Results: US20050070461A1, “Means and methods for altering the motility of the gastrointestinal tract” (priority 2002, published 2005)

Key:
[1] = test system: murine model for postoperative ileus (gastroparesis after intestinal manipulation); experiment: Gastric emptying by scintigraphic imaging after intestinal manipulation (murine model for postoperative ileus); assay type: in vivo, mice; settings: for gastric emptying rate k / half-emptying time: MAb pre-operative, hexamethonium or guanethidine postoperative injection
[2] = test system: MPO-containing leukocytes in ileal muscularis; experiment: Leukocyte recruitment / MPO activity in ileal muscularis after intestinal manipulation; assay type: in vivo, mice
[3] = test system: gastric emptying in control mice; experiment: Gastric emptying in control mice given the anesthetics

In the case of `CN1CCC(=C2c3ccccc3CC(=O)c3sccc32)CC1` [ketotifen], the development of gastroparesis ([1]; 24 hours after IM) is reported as “could be prevented” and the “decrease of postoperative recruitment of MPO-containing leukocytes compared to vehicle” value ([2]; 24 hours after IM, ketotifen 10 mg/kg p.o. for five days prior to surgery) is reported as 45%.

With `CNC1(c2ccccc2Cl)CCCCC1=O` (stereo not shown) [ketamine] the gastric emptying ([3]; xylazine 20 mg/kg in combination ketamine 100 mg/kg) was “did not alter gastric emptying”.

In the case of `Cc1cccc(C)c1N=C1NCCCS1` [xylazine], the gastric emptying ([3]; xylazine 20 mg/kg used alone) is reported as “did not alter gastric emptying”.

`C[N+](C)(C)CCCCCC[N+](C)(C)C` [hexamethonium] was tested, and the gastroparesis ([1]; 6 hours after IM) was “reversed the gastroparesis partially”, the “gastric emptying rate k” value ([1]; 6 hours after IM) was “normalized” and the half-emptying time ([1]; 6 hours after IM) was “normalized”. The development of gastroparesis ([1]; 24 hours after IM) was “completely”, the “gastric emptying rate k” value ([1]; 24 hours after IM) was “normalized” and the half-emptying time ([1]; 24 hours after IM) was “normalized”. For the same compound, the development of gastroparesis ([1]; mice, time not stated) was “capable of preventing the development of gastroparesis”, the “leukocyte influx / recruitment in ileal muscularis (MPO-staining cells)” value ([2]; 24 hours after IM) was “did not affect” and the “amount of MPO activity in muscularis homogenates” value ([2]; 24 hours after surgery) was “did not affect”.
